The values that follow come from article PMC10402266, “Reaction hijacking inhibition of Plasmodium falciparum asparagine tRNA synthetase” (Research Square, 2023).

Common to all, as to type: biochemical
In assay [1] the target is T1, PfAsnRS (Plasmodium falciparum cytoplasmic asparaginyl tRNA synthetase) (Plasmodium falciparum, UniProt O96198).
T1 construct: gene PF3D7_0211800; recombinant wildtype PfAsnRS, His-tag removed
The assay can be described thus: ATP consumption assay of recombinant enzyme without tRNA, synthetic adduct.

Assay [2] has as its target T1, PfAsnRS (Plasmodium falciparum cytoplasmic asparaginyl tRNA synthetase). The experiment in a line: ATP consumption assay of recombinant enzyme with tRNA; Asn adduct found by LC-MS.
In assay [3] the target is T2, PfAsnRS (Plasmodium falciparum cytoplasmic asparaginyl tRNA synthetase) (Plasmodium falciparum, UniProt O96198, R487S).
T2 construct: gene PF3D7_0211800; recombinant PfAsnRSR487S
T2 sequence (O96198 1-610 R487S): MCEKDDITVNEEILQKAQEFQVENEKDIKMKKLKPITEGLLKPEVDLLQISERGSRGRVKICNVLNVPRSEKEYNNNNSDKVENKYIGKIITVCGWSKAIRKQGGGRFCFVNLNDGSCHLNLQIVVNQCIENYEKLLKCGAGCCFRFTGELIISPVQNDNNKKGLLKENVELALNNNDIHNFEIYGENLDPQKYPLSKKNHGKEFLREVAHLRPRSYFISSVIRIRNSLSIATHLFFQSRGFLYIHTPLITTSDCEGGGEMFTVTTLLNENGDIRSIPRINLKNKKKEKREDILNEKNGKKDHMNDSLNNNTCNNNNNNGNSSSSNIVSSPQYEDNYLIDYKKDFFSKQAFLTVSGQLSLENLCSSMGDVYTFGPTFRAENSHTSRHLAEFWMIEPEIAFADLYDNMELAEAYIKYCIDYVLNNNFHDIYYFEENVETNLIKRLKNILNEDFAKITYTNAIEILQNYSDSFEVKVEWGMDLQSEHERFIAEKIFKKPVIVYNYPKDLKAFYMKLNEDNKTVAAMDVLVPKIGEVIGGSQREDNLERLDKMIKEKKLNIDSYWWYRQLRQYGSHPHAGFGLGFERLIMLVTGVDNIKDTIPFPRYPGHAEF
The experiment in a line: ATP consumption assay of recombinant mutant enzyme with tRNA.

Assay [4] deals with T1, PfAsnRS (Plasmodium falciparum cytoplasmic asparaginyl tRNA synthetase). The experiment in a line: ATP consumption assay of recombinant enzyme.

pIC50: −log10 of the molar value.

By pIC50 is commonly meant −log10 of the IC50, conventionally taken in molar units.

In the case of `NC(=O)C[C@H](N)C(=O)NS(=O)(=O)c1cccc(-c2cc3ncnc(N)c3s2)c1` [Asn-OSM-S-106], in assay [1], the IC50 is 2.6 / 3.3 μM.

Take `Nc1ncnc2cc(-c3cccc(S(N)(=O)=O)c3)sc12` [OSM-S-106]: the pIC50 is 5.44 in assay [2] and 4.58 in assay [3].

For `Nc1ncnc2c1ncn2[C@@H]1O[C@H](COS(N)(=O)=O)[C@@H](O)[C@H]1O` [AMS, adenosine 5’-sulfamate], in assay [4], the pIC50 is 8.43.
